Test results reported in patent US12673039B2, “Methods of inducing autophagy using coumarin derivatives and related compounds” (Buck Institute for Research on Aging, priority 2019, dated 2026).

Target: T1, human FXR (Homo sapiens, UniProt Q96RI1)
T1 construct: purchased Cayman
T1 sequence (Q96RI1 1-486): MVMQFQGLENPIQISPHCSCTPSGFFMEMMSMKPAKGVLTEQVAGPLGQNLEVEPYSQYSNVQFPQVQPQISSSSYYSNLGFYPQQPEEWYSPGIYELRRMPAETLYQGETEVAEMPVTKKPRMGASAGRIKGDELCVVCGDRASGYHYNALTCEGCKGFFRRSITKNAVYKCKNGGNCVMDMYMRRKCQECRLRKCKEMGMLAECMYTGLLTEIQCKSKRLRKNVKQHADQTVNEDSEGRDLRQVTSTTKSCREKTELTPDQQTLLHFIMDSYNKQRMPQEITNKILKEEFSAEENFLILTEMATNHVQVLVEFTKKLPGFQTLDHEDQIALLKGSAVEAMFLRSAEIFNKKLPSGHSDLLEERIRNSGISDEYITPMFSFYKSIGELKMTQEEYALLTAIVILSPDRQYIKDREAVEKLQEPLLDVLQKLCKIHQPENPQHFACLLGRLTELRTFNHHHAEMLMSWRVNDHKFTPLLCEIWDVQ
Assay: Human FXR antagonist reporter assay
Format: cell-based
Experimental: FIG. 7 illustrates that coumarin 106 (“C1”, “AIC106”) acts as a potent FXR antagonist. The ability of C1 (AIC106) (10 μM and 30 μM) to inhibit activation of the FXR agonist […] (GW, 150 μM) was interrogated using a commercially available kit (Indigo Biosciences) versus the established natural FXR ligands TUDCA and UDCA (50 μM and 100 μM). Values are fold induction versus untreated controls; ****p<0.01 versus GW; **p<0.05 versus GW.
FIG. 23, panels A-H: FXR modulation enhances HLH-30 expression in human neuronal SH-SY5Y cells. Panel A) Effects of AIC106 on human FXR activity was determined in a mammalian one-hybrid based kit assay by quantifying changes in the luciferase activity of FXR ligand (GW4064, GW) induced treatment. […] Panel B) Protein expression of TFEB, cathepsin-D (CAT-D) and small heterodimer partner-1 (SHP-1) was determined by immunoblot in neuronal SH-SY5Y cells post-24 hours of treatment with AIC106 and DMSO-control. […] Autophagic flux in DMSO-control and AIC106 treated neuronal cells was determined by quantifying levels of autophagosome specific LC3-II protein both in presence and absence of autophagy inhibitor bafliomycin A1 (Baf A, 10 nM). […]
Antagonistic activity of the AIC106 on human FXR was determined using a commercially available FXR Human reporter assay kit (Cayman) according to the supplied manual. […] Luminescence was quantified. […]

O=c1oc2c3c4c(cc2c2c1CCC2)CCCN4CCC3 [C1, 2,3,6,7,10,11-Hexahydro-1H,5H-cyclopenta(3,4)(1)benzopyrano(6,7,8-ij)quinolizin-12(9H)-one]
FXR activation elicited by the FXR agonist GW4064 (C1 10 μM and 30 μM versus TUDCA and UDCA (FIG. 7)): significantly inhibited FXR activation
ligand-induced activation of human FXR (FXR ligand GW4064 (FIG. 23, panel A)): prevented ligand-induced activation of the human FXR protein
